# Measurements as given in US12239729B2, “TRPV3 agonists for the treatment of skin conditions” (Soricimed Biopharma Inc., priority 2012, dated 2025).
# Entries after “also recorded” stand apart in the source; their conditions may differ. Peptide text beside a SMILES is read from it.
# Legend:
# Format in all cases: cell-based, human
# [1] = system: HaCaT cells; experiment: Wound healing (scratch gap closure) assay in HaCaT cells (Example 4); details: for Migration Score (gap closure activity): HaCaT wound model
# Protocol: SOR-C13 and SOR-C27 were tested for their ability to promote tissue repair in a human keratinocytes (HaCaT) model of wound healing. In this model, cells are grown to confluency and then a gap is made in the sheet of cells by scratching the surface of the cells. After treating the cells for 24 hours, the closure of the gap, and the state of the cells in terms of polarization and mobility into the gap, are measured as a surrogate for activation of the wound healing response and the proliferation and/or migration of cells involved in tissue repair.
# HaCaT cells were plated at 4×10^5 per well in 12-well tissue culture plates in MEGM Bullet Kit (Lonza, Cat. #CC-3150) containing bovine pituitary extracts (BPE), hEGF, insulin, and hydrocortisone. The total volume was 2 ml. About 24 hours later, a gap at the bottom of each well was generated by scratching with a sterile pipette tip. The supernatant was aspirated and cells were washed gently once with PBS. Fresh media (MEGM Bullet Kit, 2 ml) was added after the wash. Cells were treated in duplicates with PBS, or SOR-C13 at 10, 100 and 1000 μM, or SOR-C27 at 10, 100 and 1000 μM, and 100 μM valproic acid. After 24 hours, each well was examined under the microscope to semi-quantify the gap closure by cell migration. A digital camera fixed to the microscope was used to capture images of cells.
# Under visual inspection, the wound healing results was scored as: • “−”: minimal cell polarization toward wound, no initiation of cell protrusion into the gap; no change in the wound gap; • “+”: cell polarization toward wound was observed; cell protrusion was observed; cell migration started but gap size is between 75 to 100% of original wound gap; • “++”: cell polarization toward the wound was observed; cell protrusion was observed; cell migration across the gap was observed, and gap size ≤½ of original wound gap; • “+++”: cell polarization toward wound was observed; cell protrusion was observed; cell migration across the gap was observed, and gap size ≤⅓ of original wound gap. Results
# [2] = system: HaCaT cells; experiment: Wound healing assay in HaCaT cells with SOR-C13 fragments (Example 5); details: 24 hours
# Protocol: HaCaT cells were plated at 1.6×10^5 per well in 24-well tissue culture plates in 1 ml of DMEM low glucose medium with 10% FBS. After 3 days, when the cells in each well were ˜100% confluent, a gap at the bottom of each well was generated by scratching with a sterile pipette tip. Supernatant was aspirated and cells were washed gently once with PBS. Fresh media (MEGM Bullet Kit, (Lonza, Cat. #CC-3150) containing bovine pituitary extracts (BPE), hEGF, insulin, and hydrocortisone was added after the wash with peptides. After 24 hours, cells were fixed with 2% paraformaldehyde with 15-minute incubation. Fixed cells were rinsed with PBS. Cells in each well were then examined under the microscope to semi-quantify the gap closure by cell migration. A digital camera fixed to the microscope was used to capture images of cells. The width of gap was measured by a ruler semi-quantitatively on the image. Under visual inspection, the wound healing results were also scored as “−”; “+”; “++”; or “+++” using the same criteria as set out in Example 4.
# The effect of the peptides on tissue repair was determined using a wound healing assay that measures the migration of HaCaT cells. Gap size prior to and after treatment was semi-quantified by measuring the size of each gap on a digital photograph of the cells.
# [3] = system: HaCaT cells; experiment: Cell death assay in HaCaT cells with SOR-C13 fragments (Example 5); details: 100 and 1000 μM tested, 72 hours
# Protocol: Solutions of each of the peptides listed in Table 2 were made based on formulation weight without correction of purity in PBS at a 100 mM stock concentration. Stock solutions were sterilized by passing through a 0.2 μm syringe filter prewashed with PBS. Stocks of peptides were kept in aliquots at −20° C. during the study. Glycolic acid was made in a 5M stock in PBS and filtered using a 0.2 μm syringe filter and kept at −20° C.
# Human immortalized keratinocyte HaCaT cells were cultured as described in Example 3.
# HaCaT cells were plated at ˜8×10^5/well in each well of the 12-well tissue culture plates in triplicates in 2 ml culture media. Twenty-four (24) hours post-plating, cells were treated with PBS, or peptide stocks at 100 and 1000 μM (in triplicates), or glycolic acid at 20 mM (single data point). The Cell Death Assay was otherwise performed as described in Example 3.
# [4] = system: HaCaT cells; experiment: Cell death assay in HaCaT keratinocytes (Example 3)
# Protocol: In an initial experiment, various concentrations of SOR-C13 and SOR-C27 were tested on human keratinocytes (HaCaT cells) for their ability to cause cell death. The negative control was Phosphate Buffered Saline (PBS) and the positive control was Glycolic Acid (20 mM), a known activator of TRPV3. At the concentrations used (10, 100 and 1000 μM) only the 1000 μM concentration produced a statistically significant increase in cell death over PBS (FIG. 6). […] The two peptides appeared to be indistinguishable in their activity with respect to the number of dead cells
# Both peptides were dissolved in PBS at 30 mM concentration at ambient temperature based on the peptide content with a correction factor (SOR-C13 concentration was multiplied by 1.19, while SOR-C27 concentration was multiplied by 1.29). Stock solutions were sterilized by passing through a 0.2 μm syringe filter prewashed with PBS. Stocks of peptides were kept at −20° C. during the study.
# Human immortalized keratinocyte HaCaT cells (Cat. #T0020001) were from Addexbio Technologies (San Diego, California, USA). In general, HaCaT cells were cultured in 37° C. CO2 incubator in DEME with 1.0 g/L glucose (Lonza, Cat #12-707F) with 10% FBS. Glutamine (2 mM), penicillin (100 I.U.) and streptomycin (100 μg/ml) were added to the media. Cells were sub-cultured twice per week using Trypsin-0.25% EDTA to detach cells.
# HaCaT cells were plated at ˜8×10^5/well in each well of the 12-well tissue culture plates in triplicates in 2 ml culture media. Twenty-four (24) hours post-plating, cells were treated with PBS, or SOR-C13 at 10, 100 and 1000 μM, or SOR-C27 at 10, 100 and 1000 μM, or glycolic acid at 20 mM.
# At 72 hours post-treatment, the incubation was terminated and supernatant was collected. Attached cells were washed with 2 ml PBS, and trypsinized. Suspension of cells was combined with supernatant and spun at 1000 g for 5 minutes. The cell pellet was then resuspended in 100 μl PBS for cell counting using trypan blue exclusion.
# Student's t-test was used to compare the group treated with a test article vs. the group treated with PBS. Standard errors of mean (SEM) were used to represent variation of data.
structure (smiles),measurement,setting,value
"CC(C)C[C@H](NC(=O)[C@H](Cc1ccccc1)NC(=O)[C@H](CCC(=O)O)NC(=O)[C@@H](N)CCCCN)C(=O)N[C@@H](Cc1cnc[nH]1)C(=O)N1CCC[C@H]1C(=O)N[C@@H](CO)C(=O)N[C@@H](CCCCN)C(=O)N[C@H](C(=O)N[C@@H](CC(=O)O)C(=O)N[C@@H](CC(C)C)C(=O)N1CCC[C@H]1C(=O)N[C@@H](CCCNC(=N)N)C(=O)O)C(C)C [SOR-C13, KEFLHPSKVDLPR] (H-KEFLHPSKVDLPR-OH)",effect on migration of HaCaT cells through the scratch (words),"[1]; 10 μM, 24 hours",little difference compared to PBS treatment
same,Migration Score (gap closure activity),"[1]; 10 uM, 24 hours",+ (cell polarization toward wound was observed; cell protrusion was observed; cell migration started but gap size is between 75 to 100% of original wound gap)
same,effect on migration of HaCaT cells through the scratch (words),"[1]; 100 μM, 24 hours",clearly had an effect to induce cell migration
same,Migration Score (gap closure activity),"[1]; 100 uM, 24 hours","++ (cell polarization toward the wound was observed; cell protrusion was observed; cell migration across the gap was observed, and gap size ≤½ of original wound gap)"
same,effect on migration of HaCaT cells through the scratch (words),"[1]; 1000 μM, 24 hours",dramatically closed
same,Migration Score (gap closure activity),"[1]; 1000 uM, 24 hours","+++ (cell polarization toward wound was observed; cell protrusion was observed; cell migration across the gap was observed, and gap size ≤⅓ of original wound gap)"
same,effect on migration of HaCaT cells over the tested concentrations,"[1]; 10, 100, 1000 μM, 24 hours",promote tissue repair in a dose responsive manner; also recorded: dose-dependent effect on promoting the migration; also recorded: induced migration of HaCaT cells in a dose-dependent manner
same,concentrations at which wound healing of HaCaT cells was promoted,[1]; 24-hour incubation,≥ 100 µM
same,"wound healing response, gap closure",[2]; 1000 μM,no response
same,concentration dependence of wound healing response / gap closure,"[2]; 10, 100 and 1000 μM",lower concentrations of SOR-C13 are more effective than higher concentrations; also recorded: lower concentrations are more effect than higher concentrations
same,"wound healing response, gap closure",[2]; two lowest concentrations (10 and 100 μM),very good response
same,induction of cell death (words),[3],no significant effect to induce cell death; also recorded: no increase in cell death above the PBS treatment
same,increase in cell death compared to PBS treatment,"[4]; 1 mM, 72-hour incubation",~2 fold
same,induction of cell death compared to PBS,"[4]; 1 mM, 72 hours, p<0.05",significantly induced cell death
same,number of dead cells,"[4]; 1 mM, 72 hours, trypan blue exclusion",~2.2×10^4 /well
same,induction of cell death compared to PBS,"[4]; 10 or 100 μM, 72 hours",no significant difference in the numbers of dead cells; also recorded: did not have a significant effect
